According to patent US20040176371A1, “Novel pyrazolopyrimidinethione derivatives, preparation methods thereof and their use as therapeutics for erectile dysfunction” (priority 2001, published 2004):

Experiments:
ICR mice = assay: Acute toxicity when administered orally to mouse; format: in vivo; conditions: single oral administration, both male and female
Experimental: In order to evaluate the toxicity of the compounds of formula 1 according to the present invention, an experiment was performed as described below.
The compound prepared in the Example 5 was administered orally to four ICR mice (2 male, 2 female) once at a dose of 128, 320, 800, 2000 and 5000 mg/kg, respectively. 7 days after the administration, mortality rate, general symptoms, changes in weight, and autopsy results were recorded.

[1] = biological target: phosphodiesterase I (PDE I); assay: Inhibitory activity against phosphodiesterase I (method of Thompson and Appleman); format: biochemical; conditions: enzyme isolated from diaphragm kidney cortex of rat
Experimental: (§1) In order to identify the effects of compounds of formula 1 according to the present invention on erectile dysfunction, inhibitory activities against phosphodiesterase V and other isozymes (I, III and VI) were evaluated in accordance with the following procedure.
(§2) Phosphodiesterases I, III and V were isolated from diaphragm kidney cortex of rat, phosphodiesterase VI was isolated from retina of rat. Inhibitory activities against the isolated enzymes were evaluated by the method of Thompson and Appleman (Thompson and Appleman, Biochemistry, 1971, 10, 311-316). A reaction mixture for enzyme activity [Total volume 100 μl: PDE enzymes (Column fraction 20˜40 μl), […] and 20 μl M calmodulin (10 μl addition for PDE I), [^3H]-cAMP, [^3H]-cGMP(1 μCi/μl), compound of formula 1 (0.01 nM˜1 μM), 50 mM Tris-HCl buffer solution (pH 7.4), 15 mM MgCl2, distilled water] was incubated in a water bath at 30° C. for 30 minutes, and then heat-denatured at 100° C. for 2 minutes to denature enzymes. After the reaction mixture was cooled down on ice, 250 μg/ml venom was added thereto. The resulting mixture was incubated at 30° C. for 10 minutes, and then 0.5 ml of cold d-H2O was added thereto to obtain a specimen. Guanine was separated from the specimen using an anion exchange resin (DEAE Sephacel A-25 anion exchange column). To measure the IC50 of specimen, radioactivity was counted by β-counter after treatment with 10 ml of scintillation cocktail solution.

[2] = biological target: phosphodiesterase III (PDE III); assay: Inhibitory activity against phosphodiesterase III (method of Thompson and Appleman); format: biochemical; conditions: enzyme isolated from diaphragm kidney cortex of rat
Experimental: as §1, §2

[3] = biological target: T1, phosphodiesterase V (PDE V) (Rattus norvegicus, UniProt O54735); assay: Inhibitory activity against phosphodiesterase V (method of Thompson and Appleman); format: biochemical; conditions: enzyme isolated from diaphragm kidney cortex of rat
T1 construct: Phosphodiesterases I, III and V were isolated from diaphragm kidney cortex of rat; from tissue; host or cells: rat 'diaphragm kidney cortex'
Experimental: as §1
as §2, with “Inhibitory activities against the isolated enzymes were evaluated by the method of Thompson and Appleman (Thompson and Appleman, Biochemistry, 1971, 10, 311-316).” left out

SMILES | minimal lethal dose (ICR mice) | IC50 [1] | IC50 [2] | IC50 [3]
CCCc1nn(C)c2c(=S)[nH]c(-c3cc(S(=O)(=O)N4CCN(C)CC4)ccc3OCC)nc12 [Example 5, 5-[2-ethoxy-5-(4-methylpiperazine-1-sulfonyl)phenyl]-1-methyl-3-propyl-1,6-dihydropyrazolo[4,3-d]pyrimidine-7-thione] | more than 5000 mg/kg | 1890 nM | 1250 nM | 0.59 nM
CCCc1nn(C)c2c(=S)[nH]c(-c3cc(S(=O)(=O)N4CCN(CCO)CC4)ccc3OCC)nc12 [Example 7, 5-{2-ethoxy-5-[4-(2-hydroxyethyl)piperazine-1-sulfonyl]phenyl}-1-methyl-3-propyl-1,6-dihydropyrazolo[4,3-d]pyrimidine-7-thione] | – | 110 nM | 3020 nM | 0.4 nM
CCCc1nn(C)c2c(=S)[nH]c(-c3cc(S(=O)(=O)N4CCNCC4)ccc3OCC)nc12 [Example 9, 5-[2-ethoxy-5-(piperazine-1-sulfonyl)phenyl]-1-methyl-3-propyl-1,6-dihydropyrazolo[4,3-d]pyrimidine-7-thione] | – | 2430 nM | 5630 nM | 0.62 nM
CCCOc1ccc(S(=O)(=O)N2CCN(C)CC2)cc1-c1nc2c(CCC)nn(C)c2c(=S)[nH]1 [Example 10, 1-methyl-5-[5-(4-methylpiperazine-1-sulfonyl)-2-propoxyphenyl]-3-propyl-1,6-dihydropyrazolo[4,3-d]pyrimidine-7-thione] | – | 620 nM | 1030 nM | 0.58 nM
CCCOc1ccc(S(=O)(=O)N2CCN(CCO)CC2)cc1-c1nc2c(CCC)nn(C)c2c(=S)[nH]1 [Example 12, 5-{5-[4-(2-hydroxyethyl)piperazine-1-sulfonyl]-2-propoxyphenyl}-1-methyl-3-propyl-1,6-dihydropyrazolo[4,3-d]pyrimidine-7-thione] | – | 10 nM | 1080 nM | 0.46 nM
CCCc1nn(C)c2c(=O)[nH]c(-c3cc(S(=O)(=O)N4CCN(C)CC4)ccc3OCC)nc12 [Sildenafil, reference compound] | – | 2250 nM | 1750 nM | –
